This experiment deals with platelet aggregation. Description: inhibition of arachidonic acid-induced platelet aggregation in beagle platelet rich plasma (PRP), light transmission. Particulars: Canis lupus familiaris, arachidonic acid inducer, 37°. The format is cell-based. The procedure: That the prostacyclins of formulas I-A and I-B of this invention are active as anti-blood platelet aggregating agents can be seen from the administration of (5Z,7β,9α,11α,13E,15R)-7-fluoro-6,9-epoxy-11,15-dihydroxy-16,16-dimethyl-prosta-5,13-dien-1-oic acid methyl ester by the following test.
30 Ml. of blood was drawn from the jugular vein of a conscious beagle using two 15 ml. Vacutainer tubes, with no additive, connected to a 20 g. 1 inch multiple sample needle. The blood was immediately transferred to a 50 ml. conical plastic centrifuge tube containing 3 ml. of 3.8% sodium citrate (3.8 grams of sodium citrate crystal, Na3 C6 H5 O7.2H2 O, in 100 ml. of distilled water), capped and gently mixed. The citrated blood was centrifuged at 160 g. for 15 minutes at 20° C. The platelet rich plasma (PRP) was carefully withdrawn with a pipette, without disturbing the buffy coat and erythrocyte layers. The PRP was placed in 16×125 mm plastic tubes, capped and stored at room temperature 19°-21° C. PRP preparations showing a tinge of redness, indicative of hemolysis, were discarded. The remaining blood, after the removal of PRP, was recentrifuged at higher speed, 900 g. for 10 minutes, to yield platelet poor plasma (PPP). The PRP was used immediately and the aggregation study completed within three hours after preparation.
Platelet aggregation was measured with a Payton duel channel aggregation module connected to a duel pen recorder for the continuous recording of the increase in light transmission due to clumping of platelets. The 0-100% transmission scale was set with PRP (0%) and PPP (100%). The temperature was set at 37° and the stirring speed at 900 rpm. 0.45 Ml. of PRP was added to a cuvette containing a teflon coating stirring bar and prewarmed at 37° in a water bath. 5 μl of various concentrations of (5Z,7β,9α,11α,13E,15R)-7-fluoro-6,9-epoxy-11,15-dihydroxy-16,16-dimethyl-prosta-5,13-dien-1-oic acid methyl ester, diluted from a stock solution of 5×10^-4 M in DMSO (dimethylsulfoxide) with phosphate buffered saline containing 1 mg/ml. of bovine serum albumin, fraction V, was added and stirred for 1 minute. The inducer of aggregation, arachidonic acid, at a concentration which will cause 50-70% aggregation after 5 minutes, was then added in 50 μl of solution. The % inhibition, set forth in the following Table, was calculated from the ratio of the % aggregation with (5Z,7β,9α,11α,13E,15R)-7-fluoro-6,9-epoxy-11,15-dihydroxy-16,16-dimethyl-prosta-5,13-dien-1-oic acid methyl ester over that with the vehicle×100.
The preparation of phosphate buffered saline and arachidonic acid solution used above is as follows: Phosphate buffered saline (PBS) was prepared by adding 1 mM solution of sodium phosphate aqueous buffer, pH 7.4 to 0.85% by weight/volume of an aqueous sodium chloride solution. Arachidonic acid solution was prepared as follows: A stock solution of 10 mg. per ml. in absolute ETOH was prepared and stored in freezer. To make a 10 mM solution, 0.3 ml. of the stock solution was evaporated to near dryness under nitrogen and redissolved in 0.75 ml. of 0.02NH4 OH (freshly prepared) and 0.2 ml. of PBS. Further dilutions of arachidonic acid were made with NH4 OH and PBS mixture.

Structures are written as SMILES.

In general, inhibition refers to how much of the control response was suppressed. High values mean strong suppression, low ones little suppression. The compound `CCCCC(C)(C)[C@H](O)/C=C/[C@@H]1[C@@H]2[C@H](C[C@H]1O)O/C(=C\CCCC(=O)OC)[C@H]2F` [(5Z,7β,9α,11α,13E,15R)-7-fluoro-6,9-epoxy-11,15-dihydroxy-16,16-dimethyl-prosta-5,13-dien-1-oic acid methyl ester] yielded an inhibition at 0.0001 µM (concentration 1 × 10^-10 M) of 20.8%. Moreover, the inhibition at 10 pM (concentration 1 × 10^-11 M) came out at 57.8%. The compound further gave an inhibition at 1 pM (concentration 1 × 10^-12 M) of 71.4%. For the setting “concentration 1 × 10^-13 M”, this compound returned an inhibition at 100 fM of 14.2%. This compound also yielded an inhibition at 300 fM (concentration 3 × 10^-13 M) of 20.8%.

For the origin of these results see patent US4558142A, “7-Fluoro-prostacyclin analogs” (Hoffmann-La Roche Inc., priority 1982, dated 1985).
